Experimental data from patent US6316413A (Fournier Industrie et Sante, priority 1996, dated 2001).

Legend:
[1] = biological target: T1, human B2 receptor cloned and transfected in a stable manner into a CHO cell line (Homo sapiens, UniProt P30411); assay: Binding to the cloned human bradykinin B2 receptor (CHO cell line); details: affinity for cloned human B2 receptor stably transfected into CHO cells
T1 construct: expressed in transfected cells
T1 sequence (P30411 1-391): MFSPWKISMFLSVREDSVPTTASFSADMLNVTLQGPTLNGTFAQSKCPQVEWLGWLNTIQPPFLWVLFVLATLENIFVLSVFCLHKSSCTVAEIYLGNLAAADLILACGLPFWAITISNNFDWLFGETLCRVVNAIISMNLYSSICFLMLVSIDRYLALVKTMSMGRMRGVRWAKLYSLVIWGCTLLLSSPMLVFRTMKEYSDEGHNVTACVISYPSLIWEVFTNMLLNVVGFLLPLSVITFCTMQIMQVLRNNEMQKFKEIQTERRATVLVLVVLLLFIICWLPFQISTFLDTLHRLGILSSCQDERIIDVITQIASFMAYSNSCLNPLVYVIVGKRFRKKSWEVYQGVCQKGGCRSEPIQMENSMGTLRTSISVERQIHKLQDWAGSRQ

[2] = biological target: T2, bradykinin B2 receptor (segments of human umbilical vein) (Homo sapiens, UniProt P30411); assay: B2 receptor-dependent contraction of human umbilical vein segments; format: cell-based; details: calculated from concentrations causing B2 receptor-dependent contraction of human umbilical vein; read-out: pD2 (converted)
T2 construct: determination of a pD2 value on segments of human umbilical vein; from tissue; host or cells: segments of human umbilical vein
T2 sequence (P30411 1-391): T1 sequence (P30411 1-391)

| SMILES | Ki [1] [nM] | EC50 [2] [nM] |
| --- | --- | --- |
| Cc1ccc2c(c1)SC[C@@H](NC(=O)[C@H](CO)NC(=O)[C@H](Cc1cccs1)NC(=O)CNC(=O)[C@@H]1C[C@@H](O)CN1C(=O)[C@@H]1CCCN1C(=O)[C@H](CCCNC(=N)N)NC(=O)[C@H](N)CCCNC(=N)N)C(=O)N2CC(=O)N[C@@H](CCCNC(=N)N)C(=O)O [Ex. 5, H-D-Arg-Arg-Pro-4Hyp-Gly-Thi-Ser-DBT(CH3)-Arg-OH] | 6 | 56.2 |
| N=C(N)NCCC[C@@H](N)C(=O)N[C@@H](CCCNC(=N)N)C(=O)N1CCC[C@H]1C(=O)N1C[C@H](O)C[C@H]1C(=O)NCC(=O)N[C@@H](Cc1cccs1)C(=O)N[C@@H](CO)C(=O)N[C@@H]1COc2ccccc2N(CC(=O)N[C@@H](CCCNC(=N)N)C(=O)O)C1=O [Ex. 4, H-D-Arg-Arg-Pro-4Hyp-Gly-Thi-Ser-DBO(H)-Arg-OH] | 2.5 | 7940 |
| N=C(N)NCCC[C@H](NC(=O)CN1C(=O)[C@H](NC(=O)[C@H](CO)NC(=O)[C@H](Cc2ccccc2)NC(=O)CNC(=O)[C@@H]2CCCN2C(=O)[C@@H]2CCCN2C(=O)[C@@H](N)CCCNC(=N)N)CSc2ccccc21)C(=O)O [Ex. 3, H-Arg-Pro-Pro-Gly-Phe-Ser-DBT(M)-Arg-OH] | 12.9 | – |
| N=C(N)NCCC[C@H](NC(=O)CN1C(=O)[C@H](NC(=O)[C@H](CO)NC(=O)[C@H](Cc2cccs2)NC(=O)CNC(=O)[C@@H]2C[C@@H](O)CN2C(=O)[C@@H]2CCCN2C(=O)[C@H](CCCNC(=N)N)NC(=O)[C@@H](N)CCCCN)CSc2ccccc21)C(=O)O [Ex. 2, H-Lys-Arg-Pro-4Hyp-Gly-Thi-Ser-DBT(H)-Arg-OH] | 0.07 | 79.4 |
| N=C(N)NCCC[C@@H](N)C(=O)N[C@@H](CCCNC(=N)N)C(=O)N1CCC[C@H]1C(=O)N1C[C@H](O)C[C@H]1C(=O)NCC(=O)N[C@@H](Cc1cccs1)C(=O)N[C@@H](CO)C(=O)N[C@@H]1CSc2ccccc2N(CC(=O)N[C@@H](CCCNC(=N)N)C(=O)O)C1=O [Ex. 1, H-D-Arg-Arg-Pro-4Hyp-Gly-Thi-Ser-DBT(H)-Arg-OH] | 0.7 | 200 |
